Data: ChEMBL document CHEMBL1817621, “SAR studies of acidic dual γ-secretase/PPARγ modulators” (Bioorg Med Chem, 2011)
The source made the active and inactive calls. The rule behind the calls is not given here.

test system: CHO; test: Cytotoxicity against CHO cells expressing human APP and wild type human presenilin-1 assessed as reduction of cell viability up to 40 uM after 24 hrs by Alamar blue assay; assay type: cell-based, Cricetulus griseus; details: chinese hamster

Row | Compound | Activity
1 | CCCC/C(=C\c1cc(OCc2ccc(C(F)(F)F)cc2)ccc1OCc1ccc(C(F)(F)F)cc1)C(=O)O | Non-toxic
2 | CCCC/C(=C\c1cc(OCCC2CCCCC2)ccc1OCc1ccc(C(F)(F)F)cc1)C(=O)O | Non-toxic
3 | CCCCC(Cc1ccc(OCCC2CCCCC2)c(OCCc2ccccc2)c1)C(=O)O (centres undefined) | Non-toxic
4 | CCCC/C(=C\c1cc(OCCc2ccccc2)cc(OCCc2ccccc2)c1)C(=O)O | Non-toxic

test system: not listed separately; test: Modulation of gamma-secretase expressed in CHO cells co-expressing human APP and wild type human presenilin-1 assessed as increase of amyloid beta38 production by ELISA; assay type: cell-based; details: not given

Row | EC50 [nM] | Compound
5 | 1100 | CCCC/C(=C\c1cc(OCc2ccc(C(F)(F)F)cc2)ccc1OCc1ccc(C(F)(F)F)cc1)C(=O)O
6 | 2500 | CCCC/C(=C\c1cc(OCCC2CCCCC2)ccc1OCc1ccc(C(F)(F)F)cc1)C(=O)O
7 | > 40000 | CCCCC(Cc1ccc(OCCC2CCCCC2)c(OCCc2ccccc2)c1)C(=O)O (centres undefined)
8 | 27300 | CCCC/C(=C\c1cc(OCCc2ccccc2)cc(OCCc2ccccc2)c1)C(=O)O

molecular target: T1, Peroxisome proliferator-activated receptor alpha (Homo sapiens) (UniProt Q07869); test: Modulation of human PPARalpha-LBD expressed in african green monkey COS7 cells co-transfected with Gal4 assessed as activation of transactivation activity at 10 uM by luciferase assay; assay type: cell-based; details: COS-7
T1 sequence (whole entry): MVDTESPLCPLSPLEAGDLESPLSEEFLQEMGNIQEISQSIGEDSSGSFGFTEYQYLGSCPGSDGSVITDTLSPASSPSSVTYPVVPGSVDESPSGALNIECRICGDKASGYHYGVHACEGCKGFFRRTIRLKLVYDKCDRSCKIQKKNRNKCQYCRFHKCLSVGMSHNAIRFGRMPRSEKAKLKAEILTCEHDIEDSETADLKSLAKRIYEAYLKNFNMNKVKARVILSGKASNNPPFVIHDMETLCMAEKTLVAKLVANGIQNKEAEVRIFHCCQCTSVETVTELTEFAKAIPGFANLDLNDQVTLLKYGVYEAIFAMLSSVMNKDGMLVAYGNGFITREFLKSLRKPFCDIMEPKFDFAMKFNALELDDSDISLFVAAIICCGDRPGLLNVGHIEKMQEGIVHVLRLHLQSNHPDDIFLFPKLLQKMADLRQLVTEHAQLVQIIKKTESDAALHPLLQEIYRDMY

Row | Activity | Compound
9 | inactive | CCCC/C(=C\c1cc(OCc2ccc(C(F)(F)F)cc2)ccc1OCc1ccc(C(F)(F)F)cc1)C(=O)O
10 | inactive | CCCC/C(=C\c1cc(OCCC2CCCCC2)ccc1OCc1ccc(C(F)(F)F)cc1)C(=O)O
11 | inactive | CCCCC(Cc1ccc(OCCC2CCCCC2)c(OCCc2ccccc2)c1)C(=O)O (centres undefined)
12 | inactive | CCCC/C(=C\c1cc(OCCc2ccccc2)cc(OCCc2ccccc2)c1)C(=O)O

molecular target: T2, Peroxisome proliferator-activated receptor gamma (Homo sapiens) (UniProt P37231); test: Modulation of human PPARgamma-LBD expressed in african green monkey COS7 cells co-transfected with Gal4 assessed as activation of transactivation activity at 10 uM by luciferase assay; assay type: cell-based; details: COS-7
T2 sequence (whole entry): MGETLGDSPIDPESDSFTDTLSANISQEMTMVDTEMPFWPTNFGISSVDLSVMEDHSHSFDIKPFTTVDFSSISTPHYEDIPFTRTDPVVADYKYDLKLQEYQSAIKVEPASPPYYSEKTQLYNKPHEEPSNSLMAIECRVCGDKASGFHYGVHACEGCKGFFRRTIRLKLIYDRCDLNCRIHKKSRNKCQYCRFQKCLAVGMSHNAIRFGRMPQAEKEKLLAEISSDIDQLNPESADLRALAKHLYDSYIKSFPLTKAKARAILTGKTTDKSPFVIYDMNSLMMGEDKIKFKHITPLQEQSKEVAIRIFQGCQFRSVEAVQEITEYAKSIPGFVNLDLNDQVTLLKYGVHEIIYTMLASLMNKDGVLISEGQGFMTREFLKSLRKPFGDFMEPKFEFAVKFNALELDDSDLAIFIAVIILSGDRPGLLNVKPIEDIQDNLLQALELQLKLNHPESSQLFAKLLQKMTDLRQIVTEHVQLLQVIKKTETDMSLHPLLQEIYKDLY

Row | Activity [%] | Compound
13 | 28 | CCCC/C(=C\c1cc(OCc2ccc(C(F)(F)F)cc2)ccc1OCc1ccc(C(F)(F)F)cc1)C(=O)O
14 | 27 | CCCC/C(=C\c1cc(OCCC2CCCCC2)ccc1OCc1ccc(C(F)(F)F)cc1)C(=O)O

molecular target: T3, Prostaglandin G/H synthase 1 (Ovis aries) (UniProt P05979); test: Inhibition of ovine COX-1 assessed as residual activity by measuring formation of 12-HHT from arachidonic acid at 10 uM by HPLC analysis; details: not given
T3 sequence (whole entry): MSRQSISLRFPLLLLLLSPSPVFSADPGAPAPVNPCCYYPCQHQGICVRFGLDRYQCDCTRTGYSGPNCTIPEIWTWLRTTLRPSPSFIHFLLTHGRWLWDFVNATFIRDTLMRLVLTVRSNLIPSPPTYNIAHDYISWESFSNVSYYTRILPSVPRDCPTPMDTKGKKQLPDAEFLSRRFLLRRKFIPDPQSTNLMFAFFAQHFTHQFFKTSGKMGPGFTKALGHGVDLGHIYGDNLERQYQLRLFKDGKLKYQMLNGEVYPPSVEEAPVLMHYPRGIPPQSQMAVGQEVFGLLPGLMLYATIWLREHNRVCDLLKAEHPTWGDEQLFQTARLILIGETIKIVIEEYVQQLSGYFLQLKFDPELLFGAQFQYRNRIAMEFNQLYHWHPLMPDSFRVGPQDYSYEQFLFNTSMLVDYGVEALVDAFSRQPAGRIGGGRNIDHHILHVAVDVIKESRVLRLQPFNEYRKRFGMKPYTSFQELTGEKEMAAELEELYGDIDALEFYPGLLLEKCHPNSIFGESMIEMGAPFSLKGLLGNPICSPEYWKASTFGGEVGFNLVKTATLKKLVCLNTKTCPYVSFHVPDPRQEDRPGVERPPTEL

Row | Activity [%] | Compound
15 | 82.6 | CCCC/C(=C\c1cc(OCc2ccc(C(F)(F)F)cc2)ccc1OCc1ccc(C(F)(F)F)cc1)C(=O)O
16 | 92.3 | CCCC/C(=C\c1cc(OCCC2CCCCC2)ccc1OCc1ccc(C(F)(F)F)cc1)C(=O)O
17 | 69.1 | CCCCC(Cc1ccc(OCCC2CCCCC2)c(OCCc2ccccc2)c1)C(=O)O (centres undefined)
18 | 81.4 | CCCC/C(=C\c1cc(OCCc2ccccc2)cc(OCCc2ccccc2)c1)C(=O)O

molecular target: T4, Peroxisome proliferator-activated receptor gamma (Homo sapiens, UniProt P37231); test: Modulation of human PPARgamma-LBD expressed in african green monkey COS7 cells co-transfected with Gal4 assessed as activation of transactivation activity by luciferase assay; assay type: cell-based, COS-7; details: not given
T4 sequence (P37231 whole entry): T2 sequence (whole entry)

Row | EC50 [nM] | Compound
19 | 2500 | CCCCC(Cc1ccc(OCCC2CCCCC2)c(OCCc2ccccc2)c1)C(=O)O (centres undefined)
20 | 7800 | CCCC/C(=C\c1cc(OCCc2ccccc2)cc(OCCc2ccccc2)c1)C(=O)O

molecular target: T5, Peroxisome proliferator-activated receptor delta (Homo sapiens) (UniProt Q03181); test: Modulation of human PPARdelta-LBD expressed in african green monkey COS7 cells co-transfected with Gal4 assessed as activation of transactivation activity at 10 uM by luciferase assay; assay type: cell-based; details: COS-7
T5 sequence (whole entry): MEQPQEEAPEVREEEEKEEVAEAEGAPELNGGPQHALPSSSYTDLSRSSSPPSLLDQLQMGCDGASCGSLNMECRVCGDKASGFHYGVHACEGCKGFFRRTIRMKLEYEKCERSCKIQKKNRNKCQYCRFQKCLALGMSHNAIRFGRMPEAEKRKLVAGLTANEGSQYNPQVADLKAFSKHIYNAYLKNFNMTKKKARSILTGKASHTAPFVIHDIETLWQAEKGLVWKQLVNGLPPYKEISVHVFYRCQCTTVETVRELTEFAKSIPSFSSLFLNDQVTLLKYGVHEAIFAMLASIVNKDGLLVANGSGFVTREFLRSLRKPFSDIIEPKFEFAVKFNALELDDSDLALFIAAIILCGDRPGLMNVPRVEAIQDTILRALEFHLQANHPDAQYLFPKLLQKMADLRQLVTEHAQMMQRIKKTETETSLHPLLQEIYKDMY

Row | Activity | Compound
21 | inactive | CCCC/C(=C\c1cc(OCc2ccc(C(F)(F)F)cc2)ccc1OCc1ccc(C(F)(F)F)cc1)C(=O)O
22 | inactive | CCCC/C(=C\c1cc(OCCC2CCCCC2)ccc1OCc1ccc(C(F)(F)F)cc1)C(=O)O
23 | inactive | CCCCC(Cc1ccc(OCCC2CCCCC2)c(OCCc2ccccc2)c1)C(=O)O (centres undefined)
24 | inactive | CCCC/C(=C\c1cc(OCCc2ccccc2)cc(OCCc2ccccc2)c1)C(=O)O

test system: not listed separately; test: Modulation of gamma-secretase expressed in CHO cells co-expressing human APP and wild type human presenilin-1 assessed as inhibition of amyloid beta42 production by ELISA; assay type: cell-based; details: not given

Row | IC50 [nM] | Compound
25 | 1200 | CCCC/C(=C\c1cc(OCc2ccc(C(F)(F)F)cc2)ccc1OCc1ccc(C(F)(F)F)cc1)C(=O)O
26 | 2700 | CCCC/C(=C\c1cc(OCCC2CCCCC2)ccc1OCc1ccc(C(F)(F)F)cc1)C(=O)O
27 | > 40000 | CCCCC(Cc1ccc(OCCC2CCCCC2)c(OCCc2ccccc2)c1)C(=O)O (centres undefined)
28 | 37900 | CCCC/C(=C\c1cc(OCCc2ccccc2)cc(OCCc2ccccc2)c1)C(=O)O

molecular target: T2, Peroxisome proliferator-activated receptor gamma (Homo sapiens); test: Modulation of human PPARgamma-LBD expressed in african green monkey COS7 cells co-transfected with Gal4 assessed as activation of transactivation activity by luciferase assay relative to pioglitazone; assay type: cell-based; details: COS-7

Row | Emax [%] | Compound
29 | 61 | CCCCC(Cc1ccc(OCCC2CCCCC2)c(OCCc2ccccc2)c1)C(=O)O (centres undefined)
30 | 95 | CCCC/C(=C\c1cc(OCCc2ccccc2)cc(OCCc2ccccc2)c1)C(=O)O

molecular target: T6, Prostaglandin G/H synthase 2 (Homo sapiens) (UniProt P35354); test: Inhibition of human recombinant COX-2 assessed as residual activity by measuring formation of 12-HHT from arachidonic acid at 10 uM by HPLC analysis; details: not given
T6 sequence (whole entry): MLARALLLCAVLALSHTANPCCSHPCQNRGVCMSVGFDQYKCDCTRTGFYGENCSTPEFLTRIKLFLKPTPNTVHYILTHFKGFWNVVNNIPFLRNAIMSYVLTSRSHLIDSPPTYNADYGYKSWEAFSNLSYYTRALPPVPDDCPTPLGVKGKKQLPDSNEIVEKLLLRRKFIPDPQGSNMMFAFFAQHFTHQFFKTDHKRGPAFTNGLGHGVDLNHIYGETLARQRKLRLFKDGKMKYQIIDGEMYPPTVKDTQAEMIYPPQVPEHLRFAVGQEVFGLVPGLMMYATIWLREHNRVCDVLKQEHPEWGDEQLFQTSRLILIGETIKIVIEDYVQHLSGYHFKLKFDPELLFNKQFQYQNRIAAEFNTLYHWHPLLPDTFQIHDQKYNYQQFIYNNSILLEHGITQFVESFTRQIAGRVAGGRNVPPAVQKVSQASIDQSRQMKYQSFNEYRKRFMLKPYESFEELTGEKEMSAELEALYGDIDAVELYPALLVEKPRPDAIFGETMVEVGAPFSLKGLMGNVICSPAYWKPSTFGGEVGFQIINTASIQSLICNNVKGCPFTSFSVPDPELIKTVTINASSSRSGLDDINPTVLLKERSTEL

Row | Activity [%] | Compound
31 | 102 | CCCC/C(=C\c1cc(OCc2ccc(C(F)(F)F)cc2)ccc1OCc1ccc(C(F)(F)F)cc1)C(=O)O
32 | 106 | CCCC/C(=C\c1cc(OCCC2CCCCC2)ccc1OCc1ccc(C(F)(F)F)cc1)C(=O)O
33 | 91.5 | CCCCC(Cc1ccc(OCCC2CCCCC2)c(OCCc2ccccc2)c1)C(=O)O (centres undefined)
34 | 81.4 | CCCC/C(=C\c1cc(OCCc2ccccc2)cc(OCCc2ccccc2)c1)C(=O)O
